# Reference: ChEMBL document CHEMBL1201862, “PubChem BioAssay data set” (2004)
# Calls of active or inactive are those of the source.
# What was measured:
# [1] = target: Nonstructural protein 1 (Influenza A virus, UniProt Q194T2); format: functional, Influenza A virus (A/California/07/2009(H1N1))
# [2] = viability of uninfected HEp-2 cells – cell-based, HTS, cytotoxicity control for RSV inhibitor project, dose response (AID 2410); format: functional; conditions: human respiratory syncytial virus
# [3] = target: T1, Heat shock factor protein 1 (Mus musculus, UniProt P38532); assay: enhancement of HSF1-driven luciferase signal – cell-based, NIH3T3, luminescence, dose retest, confirmation (AID 435004); format: functional;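 also: stress induced by proteasome inhibitor MG132 added 30 min after compound; luciferase reporter driven by HSF1 response element in NIH3T3 cells; actives raise luminescence as potentiators of the MG132 stress response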
# T1 sequence (P38532 whole entry): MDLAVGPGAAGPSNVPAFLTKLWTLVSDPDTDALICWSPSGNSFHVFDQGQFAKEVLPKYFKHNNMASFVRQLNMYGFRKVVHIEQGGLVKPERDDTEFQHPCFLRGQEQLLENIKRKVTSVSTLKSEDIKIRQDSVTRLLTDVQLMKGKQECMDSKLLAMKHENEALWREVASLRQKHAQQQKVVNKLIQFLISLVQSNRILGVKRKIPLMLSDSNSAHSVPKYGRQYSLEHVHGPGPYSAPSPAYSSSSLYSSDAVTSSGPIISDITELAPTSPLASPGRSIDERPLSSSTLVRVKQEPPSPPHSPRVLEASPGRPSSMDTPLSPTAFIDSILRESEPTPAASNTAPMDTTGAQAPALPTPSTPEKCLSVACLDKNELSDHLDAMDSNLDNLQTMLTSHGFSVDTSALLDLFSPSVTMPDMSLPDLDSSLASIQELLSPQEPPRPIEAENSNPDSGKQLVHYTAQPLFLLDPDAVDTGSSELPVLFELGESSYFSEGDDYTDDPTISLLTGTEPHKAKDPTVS
# [4] = target: Induced myeloid leukemia cell differentiation protein Mcl-1 (Homo sapiens, UniProt Q07820); format: functional
# Chain of Induced myeloid leukemia cell differentiation protein Mcl-1 (Q07820 whole entry): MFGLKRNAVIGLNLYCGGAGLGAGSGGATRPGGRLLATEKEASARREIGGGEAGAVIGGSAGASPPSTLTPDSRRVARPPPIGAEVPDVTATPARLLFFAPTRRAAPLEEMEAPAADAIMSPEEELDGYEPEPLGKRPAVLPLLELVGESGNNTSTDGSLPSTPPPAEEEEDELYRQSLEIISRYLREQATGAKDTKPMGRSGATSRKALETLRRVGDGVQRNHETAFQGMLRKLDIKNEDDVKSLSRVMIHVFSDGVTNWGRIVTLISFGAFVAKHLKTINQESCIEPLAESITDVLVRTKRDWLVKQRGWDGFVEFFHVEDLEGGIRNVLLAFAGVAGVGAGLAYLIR
# [5] = viability of HCT116 lacking mutant beta-catenin – cell-based, human colon tumor, dose response (AID 1045); format: functional;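 also: HCT116 colon tumor cells with beta catenin knocked out; cells exposed to compound for 60 hours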
# [6] = viability of PTEN-deleted HCT116 cells – cell-based, HCT116 PTEN knockout, dose response (AID 1047); format: functional;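 also: HCT116 colon tumor cells with PTEN knocked out; cells exposed to compound for 60 hours before readout; potency for loss of cell viability measured by luminescence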
# [7] = target: Luciferin 4-monooxygenase (Photinus pyralis, UniProt P08659); assay: inhibition of purified Photinus pyralis luciferase – biochemical, luminescence, dose response (AID 1891)
# Chain of Luciferin 4-monooxygenase (P08659 whole entry): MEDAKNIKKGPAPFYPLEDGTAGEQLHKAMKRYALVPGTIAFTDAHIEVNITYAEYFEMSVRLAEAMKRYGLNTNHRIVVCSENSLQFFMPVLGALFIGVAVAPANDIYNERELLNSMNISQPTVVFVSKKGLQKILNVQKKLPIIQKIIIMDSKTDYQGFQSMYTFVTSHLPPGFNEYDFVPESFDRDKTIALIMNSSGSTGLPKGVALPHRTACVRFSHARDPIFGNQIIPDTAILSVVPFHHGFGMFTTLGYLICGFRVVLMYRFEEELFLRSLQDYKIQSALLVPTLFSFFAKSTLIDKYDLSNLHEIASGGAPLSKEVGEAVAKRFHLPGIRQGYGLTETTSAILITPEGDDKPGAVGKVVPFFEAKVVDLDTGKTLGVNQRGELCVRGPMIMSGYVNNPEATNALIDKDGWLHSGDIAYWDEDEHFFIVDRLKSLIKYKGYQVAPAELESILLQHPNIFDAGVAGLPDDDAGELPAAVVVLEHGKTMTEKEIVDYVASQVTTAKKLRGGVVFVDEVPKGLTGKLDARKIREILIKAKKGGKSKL
# [8] = Luminescence Cell-Based Dose Confirmation HTS to Identify Inhibitors of Platelet Dense Granule Release. [Related pubchem assays: 1663 (Primary HTS), 1678 (Summary of Project)]; format: functional
# [9] = Trypanosoma cruzi growth suppression in host cells – NIH3T3 host cells, beta-gal luminescence, confirmation (AID 2044); format: functional, cell-based;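 also: intracellular parasites grown in NIH/3T3 mouse fibroblasts as host cells; luminescent beta-galactosidase reporter signal from transgenic T. cruzi replicating inside host cells; inhibitors lower the luminescence signal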
# [10] = NIH3T3 cell viability loss – ATP luminescence, mouse fibroblasts, counter-screen, dose response (AID 2010); format: functional, cell-based;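 also: cells exposed to compound for about 90 hours before reading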
# [11] = system: H9c2; assay: cells; format: functional, cell-based; conditions: Rattus norvegicus, H9c2, Myocardium;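 also: confirmatory concentration-response retest of ultra-high-throughput screening hits for modulation of myocardial damage; cell death induced by hydrogen peroxide oxidative stress; compound pretreatment for 60 min then peroxide exposure for 2 h; potency is for protecting the cells against peroxide damage rather than for killing them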
# [12] = target: T2, Small ubiquitin-related modifier 1 (Homo sapiens, UniProt P63165); assay: SUMO1 protein-protein binding blockers, potency – biochemical, FRET, dose response (AID 624383); format: functional; conditions: read-out: IC50_Mean
# T2 sequence (P63165 whole entry): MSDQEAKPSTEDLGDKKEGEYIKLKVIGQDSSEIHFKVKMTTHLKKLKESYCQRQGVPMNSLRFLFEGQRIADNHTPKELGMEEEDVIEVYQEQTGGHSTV
# [13] = target: T2, Small ubiquitin-related modifier 1; assay: SUMO1 protein interaction blockers, potency – biochemical, fluorescence polarization, uHTS hits, dose response (AID 624382); format: functional; conditions: read-out: IC50_Mean
# [14] = target: Genome polyprotein (dengue virus type 2, UniProt P29990); assay: flavivirus cap methylation enzyme inhibition – biochemical, confirmation dose response, primary screen (AID 588689); format: functional
# Chain of Genome polyprotein (P29990 2492-3391 limits assumed): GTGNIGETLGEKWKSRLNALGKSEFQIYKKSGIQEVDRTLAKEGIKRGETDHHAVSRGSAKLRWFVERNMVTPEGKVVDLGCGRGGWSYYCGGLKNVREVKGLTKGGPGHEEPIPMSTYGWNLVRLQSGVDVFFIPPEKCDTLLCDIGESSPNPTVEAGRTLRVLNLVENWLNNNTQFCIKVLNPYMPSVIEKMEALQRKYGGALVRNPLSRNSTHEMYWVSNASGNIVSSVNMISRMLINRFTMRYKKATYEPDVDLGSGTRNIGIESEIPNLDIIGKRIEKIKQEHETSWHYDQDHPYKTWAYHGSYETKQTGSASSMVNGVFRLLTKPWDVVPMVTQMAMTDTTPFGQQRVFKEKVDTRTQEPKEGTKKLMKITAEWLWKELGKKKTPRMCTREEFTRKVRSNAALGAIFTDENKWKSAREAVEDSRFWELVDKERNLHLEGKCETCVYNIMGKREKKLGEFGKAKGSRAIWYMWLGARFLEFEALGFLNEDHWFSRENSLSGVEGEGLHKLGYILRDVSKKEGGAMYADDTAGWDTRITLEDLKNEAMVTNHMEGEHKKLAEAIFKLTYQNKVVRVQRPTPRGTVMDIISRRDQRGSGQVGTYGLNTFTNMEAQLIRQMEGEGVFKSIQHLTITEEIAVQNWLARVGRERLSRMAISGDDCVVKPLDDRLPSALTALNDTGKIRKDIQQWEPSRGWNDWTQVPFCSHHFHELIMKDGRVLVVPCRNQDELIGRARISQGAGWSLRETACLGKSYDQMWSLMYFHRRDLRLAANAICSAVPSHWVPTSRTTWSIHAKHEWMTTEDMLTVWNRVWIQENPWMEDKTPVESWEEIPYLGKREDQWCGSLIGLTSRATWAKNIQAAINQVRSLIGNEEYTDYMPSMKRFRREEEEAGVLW
# [15] = system: Streptococcus sp. 'group A'; assay: Streptococcus pyogenes SK(-)GAS viability under kanamycin – luminescence, BacTiterGlo, confirmation, counter-screen for streptokinase expression inhibitor project, dose response (AID 1900); format: functional, organism-based
# [16] = system: Streptococcus; assay: GAS UMAA2166 growth inhibition – luminescence, BacTiterGlo, counter-screen for streptokinase expression inhibitor project, dose response (AID 1915); format: functional, organism-based;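 also: potency for reduction of bacterial viability or growth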
# [17] = system: BJ; assay: BJ-TERT-LT-ST fibroblast viability loss – cell-based, RAS-independent, luminescence, dose response (AID 1935); format: functional; conditions: Homo sapiens;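 also: BJ fibroblasts immortalized with TERT plus LT and ST oncogenes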
# [18] = system: BJ; assay: BJ-TERT fibroblast viability loss – cell-based, RAS-independent, luminescence, dose response (AID 1933); format: functional; conditions: Homo sapiens
# [19] = DRD fibroblast viability loss – cell-based, non-viral oncogenic, luminescence, dose response (AID 1934); format: functional; conditions: Homo sapiens
# [20] = system: BJ; assay: cells; format: functional, cell-based; conditions: Homo sapiens
# [21] = target: Heat shock protein HSP 90-alpha (Homo sapiens, UniProt P07900); format: functional, organism-based
# [22] = target: T3, Aminopeptidase N (Plasmodium falciparum FcB1/Columbia, UniProt O96935); assay: malaria alanyl aminopeptidase activity blockers – biochemical, fluorogenic H-Leu-NHMec substrate, 1536-well (AID 1445); design: species or system Plasmodium falciparum 3D7, 3D7
# T3 sequence (O96935 whole entry): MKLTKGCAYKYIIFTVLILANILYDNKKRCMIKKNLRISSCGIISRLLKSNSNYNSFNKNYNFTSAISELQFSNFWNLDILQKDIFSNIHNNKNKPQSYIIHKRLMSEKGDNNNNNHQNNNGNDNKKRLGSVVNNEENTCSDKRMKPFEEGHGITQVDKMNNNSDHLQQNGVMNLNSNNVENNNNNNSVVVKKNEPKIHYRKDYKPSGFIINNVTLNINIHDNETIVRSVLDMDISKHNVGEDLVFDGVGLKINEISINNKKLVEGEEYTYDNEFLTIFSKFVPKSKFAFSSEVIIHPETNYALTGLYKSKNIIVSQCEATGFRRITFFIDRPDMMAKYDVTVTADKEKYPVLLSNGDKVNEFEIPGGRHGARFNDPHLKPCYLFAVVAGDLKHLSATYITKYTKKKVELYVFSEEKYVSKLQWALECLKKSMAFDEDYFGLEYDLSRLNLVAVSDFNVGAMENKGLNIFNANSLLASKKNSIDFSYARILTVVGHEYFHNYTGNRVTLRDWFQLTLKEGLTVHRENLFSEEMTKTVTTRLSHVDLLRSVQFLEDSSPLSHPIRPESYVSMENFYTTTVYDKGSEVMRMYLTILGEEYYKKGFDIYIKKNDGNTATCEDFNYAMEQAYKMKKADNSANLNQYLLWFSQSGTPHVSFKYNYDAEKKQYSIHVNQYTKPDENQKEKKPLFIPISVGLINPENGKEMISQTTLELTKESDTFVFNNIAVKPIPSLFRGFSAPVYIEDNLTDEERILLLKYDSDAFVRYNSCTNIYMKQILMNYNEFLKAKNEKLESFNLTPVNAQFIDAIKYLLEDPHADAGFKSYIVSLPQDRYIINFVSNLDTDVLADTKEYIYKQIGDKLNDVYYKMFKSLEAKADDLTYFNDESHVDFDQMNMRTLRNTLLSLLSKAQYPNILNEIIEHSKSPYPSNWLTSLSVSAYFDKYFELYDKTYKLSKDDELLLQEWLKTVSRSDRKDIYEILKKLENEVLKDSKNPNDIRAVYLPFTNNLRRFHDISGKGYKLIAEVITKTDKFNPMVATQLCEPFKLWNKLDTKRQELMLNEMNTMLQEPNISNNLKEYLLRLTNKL
# Chain of Nonstructural protein 1 (Q194T2 whole entry): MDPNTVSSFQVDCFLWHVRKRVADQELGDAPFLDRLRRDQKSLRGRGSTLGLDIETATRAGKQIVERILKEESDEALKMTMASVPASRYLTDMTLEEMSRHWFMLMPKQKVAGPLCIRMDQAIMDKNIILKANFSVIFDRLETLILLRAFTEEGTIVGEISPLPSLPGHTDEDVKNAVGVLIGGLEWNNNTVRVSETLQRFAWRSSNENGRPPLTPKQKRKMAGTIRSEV
smiles,measurement,setting,value
C=CC(=O)Nc1cccc(Oc2ccnc(Nc3ccc(N4CCN(C)CC4)cc3)n2)c1,IC50,[1],23.1 µM (active)
CCn1c(NCc2cc(Cl)ccc2O)nc2ccccc21,CC50,[2],44.7 µM (active)
O=C(Nc1nccs1)c1cccc(N2C(=O)c3cccc4c([N+](=O)[O-])ccc(c34)C2=O)c1,EC50,[3],8.49 µM (active)
same,IC50,[4],1.45 µM (not active)
same,EC50,[5],2.23 µM (active)
same,EC50,[6],3.77 µM (active)
Cc1ccc(/C=N/NC(=O)C(O)c2ccccc2)o1 (stereo unspecified),EC50,[7],> 112 µM (not active)
same,EC50,[8],> 112 µM (not active)
O=C(Nc1nc(-c2ccccc2)cs1)C1CCCN(S(=O)(=O)c2ccccc2)C1 (stereo unspecified),EC50,[9],2.68 µM (active)
same,CC50,[2],2.26 µM (active)
same,EC50,[10],> 30 µM (not active)
CCn1c(=O)c(C(=O)NC(C)c2ccccc2)c(O)c2ccccc21 (stereo unspecified),IC50,[11],13.5 µM (active)
CN(C)C(=O)C1C2N=C(S)N(c3cccc(Cl)c3)C1(C)Oc1ccc(Cl)cc12 (stereo unspecified),IC50,[11],54.6 µM (inactive)
Cc1ccc(NC(C)C(=O)N/N=C/c2c[nH]c3ccccc23)cc1 (stereo unspecified),EC50,[7],> 112 µM (not active)
same,EC50,[8],> 112 µM (not active)
O=C(COc1cccc2c1CCNC2=O)Nc1cccc(F)c1,IC50,[11],> 79 µM (inactive)
NC(=O)c1ccsc1NC(=O)c1cc(=O)c2ccccc2o1,IC50,[12],11.7 µM (active)
same,IC50,[13],> 66.6 µM (inactive)
CCCOc1ccc(/C=C2/C(=O)ON=C2C)cc1OCC,IC50,[14],29 µM (active)
Oc1cccc2ccc(/C=C/c3ccccc3Br)nc12,EC50,[15],0.212 µM (active)
same,EC50,[16],3.96 µM (active)
same,EC50,[17],108 µM (active)
same,EC50,[18],20 µM (active)
same,EC50,[19],17.4 µM (active)
same,EC50,[20],18.1 µM (active)
same,AC50,[21],12.9 µM (active)
C/C(=N\Nc1nc(C(=O)O)cs1)c1ccccc1,IC50,[22],34.2 µM (active)
Cc1ccc2c(c1)c1nnc(SCC(=O)Nc3ccccc3C(F)(F)F)nc1n2CC(=O)O,IC50,[22],18.6 µM (active)
CCCCCCCC1=NN(c2ccc(S(=O)(=O)O)cc2)C(=O)C1N=O (stereo unspecified),IC50,[14],27.4 µM (active)
NC(=O)CSc1cn(Cc2ccc(F)cc2)c2ccccc12,EC50,[7],> 112 µM (not active)
same,EC50,[8],> 112 µM (not active)
CCOC(=O)C(C)Oc1ccc(C2NC(=O)NC(C)=C2C(C)=O)cc1Br (stereo unspecified),IC50,[11],30.6 µM (inactive)
COC(=O)c1ccc(C(=O)OC)c(NC(=O)COC(=O)C23CC4CC(CC(O)(C4)C2)C3)c1,IC50,[11],> 79 µM (inactive)
Oc1ccc(/C=N/NC(=S)N/N=C/c2ccc(O)cc2)cc1,EC50,[7],0.316 µM (active)
same,EC50,[8],0.317 µM (active)
O=C(O)/C(CC(=O)c1ccc(Cl)cc1)=N/Nc1ccc([N+](=O)[O-])cc1[N+](=O)[O-],IC50,[14],12.5 µM (active)
